# Measured values as given in patent US10131679B2, “Substituted dihydropyrrolopyrazole compound” (UBE INDUSTRIES, LTD., priority 2014, dated 2018).
# Experiments:
# [1] = test system: mouse imiquimod-induced psoriasis model; assay: Ear thickening suppression test using mouse imiquimod-induced psoriasis model; format: in vivo; details: topical, 120 h, thickness measured on day 5, BALB/c mice, read-out: rate of inhibition of increase in right auricle thickness; for inhibition in vivo at 0.01 %: application of a 0.01% methanol solution for 4 days; for inhibition in vivo at 1 %: application of a 1% solution in methanol for 4 days
# Description: Ear Thickening Suppression Test Using Mouse Imiquimod-Induced Psoriasis Model
# An imiquimod-induced psoriasis model test was carried out by modifying the method of Leslie van der Fits et al. (J. Immunol. 182, 5836 (2009)). BALB/c mice were used (female, supplied by Charles River Laboratories Japan, Inc.) as laboratory animals. On the start day of the test, the thicknesses of the right auricles of the mice were measured with a thickness gauge (model SMD-565J manufactured by TECLOCK Corp.). A test compound solution or only a solvent was applied or orally administered, and after 60 minutes, 5 mg of imiquimod (Beselna Cream 5% manufactured by Mochida Pharmaceutical Co., Ltd.) was applied to the insides of the right auricles. The test compound solution or solvent administration and the imiquimod application were carried out for 4 days, and the thicknesses of the right auricles were measured again on day 5. When increase in the thicknesses of the right auricles of the solvent-administered group on day 5 was defined as 100%, the rate of inhibition of increase (%) at each dose of the test compound was calculated.
# [2] = test system: human large intestine cancer cell line (HCT-116); assay: Human large intestine cancer (HCT-116) cell growth inhibition test; format: cell-based; details: 72 h, HCT-116, culture for 3 days, sulforhodamine B absorbance
# In short: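 HCT-116 cells seeded at 1.0×10^3 cells/well in McCoy's 5a with 10% FBS, then exposed to compound (0.1% DMSO final) for 3 days. Growth measured by sulforhodamine B absorbance; IC50 derived from concentration-inhibition data.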
# [3] = molecular target: T1, CDK2 (Homo sapiens, UniProt P24941); assay: CDK2 enzyme inhibition test; format: biochemical; details: Ki=IC50/(1+S/Km); 33P bound to MBP, [γ-33P]ATP, 30° C. for 20 minutes; read-out: Ki value of CDK2 inhibitory activity
# T1 construct: purchased Invitrogen Corp. PV3267
# Description: CDK2 Enzyme Inhibition Test
# The preparation of a buffer solution was performed by mixing a HEPES buffer solution (pH 7.4), DTT, Triton X-100, and MgCl2. A 500 μM [γ-^33P]ATP solution was used by diluting a 10 mM ATP solution and a commercially available [γ-^33P]ATP solution (manufactured by PerkinElmer, Inc., Code No. NEG-302H) with the buffer solution. A CDK2 solution was used by diluting commercially available CDK2 (manufactured by Invitrogen Corp., Catalog No. PV3267) with the buffer solution. A substrate solution was used by diluting MBP with the buffer solution. As for the preparation of a reaction solution, the buffer solution, the 500 μM [γ-^33P]ATP solution, the CDK2 solution, and the substrate solution were mixed at 4° C. to obtain a reaction solution.
# (§1) CDK2 enzyme reaction was performed by adding 5 μL of a test compound solution prepared with 10% DMSO/90% injectable distilled water, and 45 μL of the reaction solution in a 1.5 mL microtube at 4° C. and reacting in the microtube at 30° C. for 20 minutes in a water bath incubator. After the reaction, a 10% aqueous TCA solution was added to each microtube while cooled to 4° C., and mixed to terminate the reaction. The resultant was left standing at 4° C. for 10 minutes and then centrifuged in a centrifuge, and the supernatant was discarded. Next, a 2% aqueous TCA solution was added, mixed thereto, and then centrifuged in a centrifuge, and the supernatant was discarded. This washing operation was performed twice. After the washing, precipitates were dissolved in a 1 N aqueous NaOH solution, and the radioactivity was measured with a liquid scintillation counter.
# The calculation of the inhibitory activity of the test compound against CDK2 was performed as a test compound concentration inhibiting 50% of the amount of ^33P bound to MBP (IC50 value) by using EXSUS (version 8.0.0 or version 8.0.1, manufactured by CAC Exicare Corp.).
# (§2) The calculation of a Ki value was performed according to the following calculation expression. S means the concentration of ATP contained in the reaction solution, and Km means a Michaelis-Menten constant. Ki=IC50/(1+S/Km)
# [4] = molecular target: T2, CDK7 (Homo sapiens, UniProt P50613); assay: CDK7 enzyme inhibition test; format: biochemical; details: Ki=IC50/(1+S/Km); 33P bound to MBP, [γ-33P]ATP, 30° C. for 20 minutes; read-out: Ki value of CDK7 inhibitory activity
# T2 construct: purchased Carna Biosciences, Inc. 04-108
# In short: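 Recombinant CDK7 with MBP substrate and [γ-33P]ATP (500 μM solution, diluted into the mix) in HEPES pH 7.4/DTT/Triton X-100/MgCl2, 20 min at 30 °C. TCA-precipitated 33P-MBP counted by scintillation; IC50 from inhibition, Ki = IC50/(1+S/Km).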
# [5] = molecular target: T3, PAK4 (Homo sapiens, UniProt O96013); assay: PAK4 enzyme inhibition test; format: biochemical; details: Ki=IC50/(1+S/Km); 33P bound to MBP, [γ-33P]ATP, 30° C. for 20 minutes; read-out: Ki value of PAK4 inhibitory activity
# T3 construct: purchased Invitrogen Corp. PV4212
# Description: PAK4 Enzyme Inhibition Test
# The preparation of a buffer solution was performed by mixing a trishydroxyaminomethane buffer solution (Tris buffer solution) (pH 7.5), DTT, Triton X-100, MgCl2, ethylene glycol bis(β-aminoethyl ether)-N,N,N′,N′-tetraacetic acid (EGTA), (3-glycerol phosphate, and sodium orthovanadate(V). A 40 μM [γ-^33P]ATP solution was used by diluting a 10 mM ATP solution and a commercially available [γ-^33P]ATP solution (manufactured by PerkinElmer, Inc., Code No. NEG-302H) with the buffer solution. A PAK4 solution was used by diluting commercially available PAK4 (manufactured by Invitrogen Corp., Catalog No. PV4212) with the buffer solution. A substrate solution was used by diluting MBP with the buffer solution. As for the preparation of a reaction solution, the buffer solution, the 40 μM [γ-^33P]ATP solution, the PAK4 solution, and the substrate solution were mixed at 4° C. to obtain a reaction solution.
# as §1, with “PAK4” for “CDK2”, “mixed,” for “mixed thereto,”
# The calculation of the inhibitory activity of the test compound against PAK4 was performed as a test compound concentration inhibiting 50% of the amount of ^33P bound to MBP (IC50 value) by using EXSUS (version 8.0.0 or version 8.0.1, manufactured by CAC Exicare Corp.).
# as §2
# T2 sequence (P50613 whole entry): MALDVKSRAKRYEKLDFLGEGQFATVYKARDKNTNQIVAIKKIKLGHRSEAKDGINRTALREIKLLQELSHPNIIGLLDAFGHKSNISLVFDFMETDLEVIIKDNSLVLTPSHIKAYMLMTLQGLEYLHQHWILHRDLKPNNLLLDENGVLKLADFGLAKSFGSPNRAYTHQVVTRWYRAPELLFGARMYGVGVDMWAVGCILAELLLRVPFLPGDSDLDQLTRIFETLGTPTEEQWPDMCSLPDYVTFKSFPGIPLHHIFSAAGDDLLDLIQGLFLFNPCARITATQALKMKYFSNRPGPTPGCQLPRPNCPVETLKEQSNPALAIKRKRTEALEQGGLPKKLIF
# T2 sequence (P51946 whole entry partner): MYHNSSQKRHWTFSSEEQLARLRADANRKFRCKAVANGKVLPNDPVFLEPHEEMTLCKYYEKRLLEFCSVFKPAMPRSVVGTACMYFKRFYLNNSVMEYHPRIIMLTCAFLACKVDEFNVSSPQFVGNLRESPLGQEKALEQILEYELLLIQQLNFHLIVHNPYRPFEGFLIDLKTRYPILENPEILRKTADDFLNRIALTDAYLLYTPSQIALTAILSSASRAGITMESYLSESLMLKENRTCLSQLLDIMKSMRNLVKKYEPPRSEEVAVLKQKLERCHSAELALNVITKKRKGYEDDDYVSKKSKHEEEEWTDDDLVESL
# T2 sequence (P51948 whole entry partner): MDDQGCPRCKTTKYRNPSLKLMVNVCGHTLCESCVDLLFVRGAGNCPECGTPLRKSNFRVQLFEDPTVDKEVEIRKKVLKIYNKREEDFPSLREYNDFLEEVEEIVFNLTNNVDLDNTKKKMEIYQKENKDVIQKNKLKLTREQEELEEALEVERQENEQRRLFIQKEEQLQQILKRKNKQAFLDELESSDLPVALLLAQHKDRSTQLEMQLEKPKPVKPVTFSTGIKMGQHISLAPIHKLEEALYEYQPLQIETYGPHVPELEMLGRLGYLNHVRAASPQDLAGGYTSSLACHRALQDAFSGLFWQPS
# T3 sequence (O96013 whole entry): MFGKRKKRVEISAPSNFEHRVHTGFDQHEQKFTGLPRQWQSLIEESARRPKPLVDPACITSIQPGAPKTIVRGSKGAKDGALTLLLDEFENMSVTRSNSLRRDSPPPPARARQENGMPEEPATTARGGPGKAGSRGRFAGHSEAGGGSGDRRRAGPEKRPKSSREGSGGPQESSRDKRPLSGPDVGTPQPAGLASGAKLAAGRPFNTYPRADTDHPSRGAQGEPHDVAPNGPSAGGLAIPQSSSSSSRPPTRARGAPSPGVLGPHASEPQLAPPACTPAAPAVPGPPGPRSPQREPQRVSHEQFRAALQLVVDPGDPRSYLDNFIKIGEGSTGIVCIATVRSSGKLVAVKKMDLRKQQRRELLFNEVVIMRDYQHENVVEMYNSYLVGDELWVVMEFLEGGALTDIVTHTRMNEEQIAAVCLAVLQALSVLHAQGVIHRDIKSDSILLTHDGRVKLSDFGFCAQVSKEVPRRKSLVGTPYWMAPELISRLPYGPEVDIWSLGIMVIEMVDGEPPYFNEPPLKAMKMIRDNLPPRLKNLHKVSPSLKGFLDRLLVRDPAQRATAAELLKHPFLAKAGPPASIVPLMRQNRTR
Compound,inhibition in vivo at 1 % [1] [%],other results
"COCC(C)(C)C(NC(=O)N1Cc2c(NC(=O)C3([Si](C)(C)C)CCC3)n[nH]c2C1(C)C)c1ccccc1 (stereo not drawn) [IV-676, N-(3-Methoxy-2,2-dimethyl-1-phenylpropyl)-6,6-dimethyl-3-[1-(trimethylsilyl)cyclobutanecarboxamido]-4,6-dihydropyrrolo[3,4-c]pyrazole-5(1H)-carboxamide]",,inhibition in vivo at 0.01 % [1]: ≥ 50%
"CCCCO[C@@H](C(=O)N1Cc2c(NC(=O)C3([Si](C)(C)C)CCC3)n[nH]c2C1(C)C)c1ccccc1 [IV-1200, (R)—N-[5-(2-Butoxy-2-phenylacetyl)-6,6-dimethyl-1,4,5,6-tetrahydropyrrolo[3,4-c]pyrazol-3-yl]-1-(trimethylsilyl)cyclobutanecarboxamide]",,inhibition in vivo at 0.01 % [1]: ≥ 50%
"C[C@@H](Oc1ccccc1)C(=O)N1Cc2c(NC(=O)C3([Si](C)(C)C)CCC3)n[nH]c2C1(C)C [IV-1258, (R)—N-[6,6-Dimethyl-5-(2-phenoxypropanoyl)-1,4,5,6-tetrahydropyrrolo[3,4-c]pyrazol-3-yl]-1-(trimethylsilyl)cyclobutanecarboxamide]",,IC50 [2]: ≤ 500 nM; Ki [3]: ≥ 1000 nM; Ki [4]: ≤ 50 nM; Ki [5]: ≥ 500 nM
"CC(=O)OC[C@@H](NC(=O)N1Cc2c(NC(=O)C3([Si](C)(C)C)CCC3)n[nH]c2C1(C)C)c1ccccc1 [V-1442, (S)-2-{6,6-Dimethyl-3-[1-(trimethylsilyl)cyclobutanecarboxamido]-1,4,5,6-tetrahydropyrrolo[3,4-c]pyrazole-5-carboxamido}-2-phenylethyl acetate]",≥ 50,
"CCC(=O)OC[C@@H](NC(=O)N1Cc2c(NC(=O)C3([Si](C)(C)C)CCC3)n[nH]c2C1(C)C)c1ccccc1 [V-1446, (S)-2-{6,6-Dimethyl-3-[1-(trimethylsilyl)cyclobutanecarboxamido]-1,4,5,6-tetrahydropyrrolo[3,4-c]pyrazole-5-carboxamido}-2-phenylethyl propionate]",≥ 50,
"CC(C)C(=O)OC[C@@H](NC(=O)N1Cc2c(NC(=O)C3([Si](C)(C)C)CCC3)n[nH]c2C1(C)C)c1ccccc1 [V-1454, (S)-2-{6,6-Dimethyl-3-[1-(trimethylsilyl)cyclobutanecarboxamido]-1,4,5,6-tetrahydropyrrolo[3,4-c]pyrazole-5-carboxamido}-2-phenylethyl isobutanoate]",≥ 50,
"CC(C)(C)C(=O)OC[C@@H](NC(=O)N1Cc2c(NC(=O)C3([Si](C)(C)C)CCC3)n[nH]c2C1(C)C)c1ccccc1 [V-1462, (S)-2-{6,6-Dimethyl-3-[1-(trimethylsilyl)cyclobutanecarboxamido]-1,4,5,6-tetrahydropyrrolo[3,4-c]pyrazole-5-carboxamido}-2-phenylethyl pivalate]",≥ 50,
"CCCCCCCC(=O)OC[C@@H](NC(=O)N1Cc2c(NC(=O)C3([Si](C)(C)C)CCC3)n[nH]c2C1(C)C)c1ccccc1 [V-1470, (S)-2-{6,6-Dimethyl-3-[1-(trimethylsilyl)cyclobutanecarboxamido]-1,4,5,6-tetrahydropyrrolo[3,4-c]pyrazole-5-carboxamido}-2-phenylethyl octanoate]",≥ 50,
"CCCCCCCCCCCC(=O)OC[C@@H](NC(=O)N1Cc2c(NC(=O)C3([Si](C)(C)C)CCC3)n[nH]c2C1(C)C)c1ccccc1 [V-1474, (S)-2-{6,6-Dimethyl-3-[1-(trimethylsilyl)cyclobutanecarboxamido]-1,4,5,6-tetrahydropyrrolo[3,4-c]pyrazole-5-carboxamido}-2-phenylethyl dodecanoate]",≥ 50,
